What was measured:
[1] = molecular target: T1, NK3 receptors (Homo sapiens, UniProt P29371); experiment: Calcium ion fluidity (FLIPR) in cells with stable expression of NK3 receptors; assay type: cell-based; conditions: calcium signal, antagonist mode, read-out: NK3R IC50 (nM) FLIPR
T1 construct: expressed in transfected cells
T1 sequence (P29371 1-465): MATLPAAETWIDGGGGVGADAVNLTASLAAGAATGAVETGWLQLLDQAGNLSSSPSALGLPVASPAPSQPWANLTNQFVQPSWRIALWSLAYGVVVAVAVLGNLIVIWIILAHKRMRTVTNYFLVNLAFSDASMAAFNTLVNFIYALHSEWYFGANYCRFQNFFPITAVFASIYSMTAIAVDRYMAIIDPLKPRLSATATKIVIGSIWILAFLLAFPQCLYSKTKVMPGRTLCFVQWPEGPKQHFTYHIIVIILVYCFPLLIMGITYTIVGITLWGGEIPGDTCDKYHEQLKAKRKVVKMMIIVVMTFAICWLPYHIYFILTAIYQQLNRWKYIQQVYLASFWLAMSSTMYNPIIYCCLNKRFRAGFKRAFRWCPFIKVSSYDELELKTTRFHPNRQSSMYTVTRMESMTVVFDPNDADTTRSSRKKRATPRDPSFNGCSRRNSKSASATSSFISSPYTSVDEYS
Excerpt: Determination of the Effect of the Compounds of the Present Invention on Calcium Ion Fluidity in Cells with Stable Expression of NK3 Receptors
Experimental objective: The objective of this test example was to determine the inhibitory effect of the compounds on NK3 receptors.
Experimental Methods: • 1. […] Probenecid and BSA were freshly added on the day of the experiment. The buffers for the experiments included dye buffer, compound dilution buffer and the like. • 2. […] The culture medium was discarded, and 20 μL of dye was added. The cells were incubated at 37° C. in the dark for 60 min, and then the calcium signal was read. • 4. The antagonist was prepared before the experiments. […] The plate was transferred to FLIPR, and 6× concentration of the agonist compound was added at 5 μL/well. The values were read and the data were saved by using FLIPR. The total assay volume was 30 μL, comprising 20 μL/well of dye buffer, 5 μL/well of 5× concentration of the experimental compound, and 5 μL/well of 6× concentration of the agonist compound.
The calcium signal value was read by FLIPR. The output of each sampling time point in the experiment was calculated as the ratio of the signals at wavelengths of 340/510 nm to 380/510 nm. The maximum minus minimum value was calculated from the ratio signal curve. The IC50 value of the compound was calculated by fitting the data of inhibition rate percentage and ten concentrations to the parametric nonlinear logistic equation by using GraphPad prism.

[2] = molecular target: T1, NK3 receptors; experiment: Antagonism of IP1 in HEK293 cells with stable expression of NK3; assay type: cell-based; conditions: agonist Senktide 3 nM, read-out: NK3R IC50 (nM) IP1
Procedure: Determination of the Effect of the Compounds of the Present Invention on IP1 in HEK293 Cells with Stable Expression of NK3
The objective of this test example was to determine the antagonism effect of the compounds on the activity of HEK293-NK3 cells.
3. Experimental Methods: • 1. […] HEK293-NK3 cell line was cultured in complete medium and seeded in the coated dishes at 37° C., 5% CO2 until 70%˜90% confluence. • 3. […] The cells were digested and resuspended in 1× Stimulation Buffer (IP-ONE Gq Kit), seeded into the 384-well cell culture plate (which contained the compound to be tested) at 5,000 cells/well/5 μL by using Multidrop Combi. The culture plate was centrifuged at 300 rpm at room temperature for 60 seconds, and then incubated at 37° C., 5% CO2 for 15 minutes. • 5. The cell culture plate was taken out from the CO2 incubator. […] The culture plate was centrifuged at 300 rpm at room temperature for 60 seconds, and then incubated at 37° C., 5% CO2 for 2 hours. • 6. The cell culture plate was taken out from the CO2 incubator. 5 μL of IP1 d2 reagent and then 5 μL of IP1 Tb Cryptate Antibody reagent were added by using Multidrop Combi. The culture plate was centrifuged at room temperature at 300 rpm for 60 seconds, and left to stand at room temperature for 1 hour. • 7. The plate was read by using EnVision Multilabel Reader, and data were collected at the same time.
The fluorescence signal ratio (Ratio) was read and collected by EnVision Multilabel Reader. According to the readings of the Low control (DMSO control) and High control (p)ositive compound) experimental groups, the antagonism percentage data were calculated as {% antagonism=(Ratio sample−Ratio low control)/(Ratio high control−Ratio low control)×100}.

Structure (SMILES) | IC50 [1] [nM] | IC50 [2] [nM]
[2H]c1cc(C(=O)N2CCn3c(-c4nc5cc(Cl)c(F)cc5s4)nnc3[C@H]2C)ccc1F [Example 105, (R)-(3-(5-Chloro-6-fluorobenzo[d]thiazol-2-yl)-8-methyl-5,6-dihydro-[1,2,4]triazolo[4,3-a]pyrazin-7(8H)-yl)(4-fluorophenyl-3-d)methanone] | 268 | 108
[2H]c1cc(C(=O)N2CCn3c(-c4nc5cc(F)c(F)cc5s4)nnc3[C@H]2C)ccc1Cl [Example 99, (R)-(4-Chlorophenyl-3-d)(3-(5,6-difluorobenzo[d]thiazol-2-yl)-8-methyl-5,6-dihydro-[1,2,4]triazolo[4,3-a]pyrazin-7(8H)-yl)methanone] | 56.2 | 23.3
[2H]c1cc(C(=O)N2CCn3c(-c4nc(Cl)cs4)nnc3[C@H]2C)ccc1F [Example 121, (R)-(3-(4-Chlorothiazol-2-yl)-8-methyl-5,6-dihydro-[1,2,4]triazolo[4,3-a]pyrazin-7 (8H)-yl)(4-fluorophenyl-3-d)methanone] |  | 132
C[C@@H]1c2nnc(-c3nc4ccc(Cl)cc4s3)n2CCN1C(=O)c1ccc(F)cc1 [Example 19, (R)-(3-(6-Chlorobenzo[d]thiazol-2-yl)-8-methyl-5,6-dihydro-[1,2,4]triazolo[4,3-a]pyrazin-7(8H)-yl)(4-fluorophenyl)methanone] | 10.9 | 15.6
Cc1cccc2sc(-c3nnc4n3CCN(C(=O)c3ccc(Cl)cc3)[C@@H]4C)nc12 [Example 23, (R)-(4-Chlorophenyl)(8-methyl-3-(4-methylbenzo[d]thiazol-2-yl)-5,6-dihydro-[1,2,4]triazolo[4,3-a]pyrazin-7(8H)-yl)methanone] | 97.8 | 43.6
C[C@@H]1c2nnc(-c3nc(Cl)ns3)n2CCN1C(=O)c1cc(F)c(F)c(F)c1 [Example 58, (R)-(3-(3-Chloro-1,2,4-thiadiazol-5-yl)-8-methyl-5,6-dihydro-[1,2,4]triazolo[4,3-a]pyrazin-7(8H)-yl)(3,4,5-trifluorophenyl)methanone] | 183 | 84.1
Cc1ccc2nc(-c3nnc4n3CCN(C(=O)c3ccc(Cl)cc3)[C@@H]4C)sc2c1 [Example 25, (R)-(4-Chlorophenyl)(8-methyl-3-(6-methylbenzo[d]thiazol-2-yl)-5,6-dihydro-[1,2,4]triazolo[4,3-a]pyrazin-7(8H)-yl)methanone] | 58.4 | 47.8
[2H]c1cc(C(=O)N2CCn3c(-c4nc(N5CC(F)C5)cs4)nnc3[C@H]2C)ccc1F [Example 117, (R)-(3-(4-(3-Fluoroazetidin-1-yl)thiazol-2-yl)-8-methyl-5,6-dihydro-[1,2,4]triazolo[4,3-a]pyrazin-7(8H)-yl)(4-fluorophenyl-3-d)methanone] |  | 116
C[C@@H]1c2nnc(-c3nc4sccc4s3)n2CCN1C(=O)c1ccc(Cl)cc1 [Example 41, (R)-(4-Chlorophenyl)(8-methyl-3-(thieno[2,3-d]thiazol-2-yl)-5,6-dihydro-[1,2,4]triazolo[4,3-a]pyrazin-7(8H)-yl)methanone] | 224 | 
C[C@@H]1c2nnc(-c3nc4ccc(Cl)nc4s3)n2CCN1C(=O)c1ccc(F)cc1 [Example 38] | 247 | 
Cc1cccc2cc(-c3nnc4n3CCN(C(=O)c3ccc(Cl)c(Cl)c3)[C@@H]4C)nn12 [Example 49, (R)-(3,4-Dichlorophenyl)(8-methyl-3-(7-methylpyrazolo[1,5-a]pyridin-2-yl)-5,6-dihydro-[1,2,4]triazolo[4,3-a]pyrazin-7(8H)-yl)methanone] | 86.7 | 135
[2H]c1c([2H])c(C(=O)N2CCn3c(-c4nc(Cl)ns4)nnc3[C@H]2C)c([2H])c([2H])c1F [Example 55, (R)-(3-(3-Chloro-1,2,4-thiadiazol-5-yl)-8-methyl-5,6-dihydro-[1,2,4]triazolo[4,3-a]pyrazin-7(8H)-yl)(4-fluorophenyl-2,3,5,6-d4)methanone] | 219 | 88.3
C[C@@H]1c2nnc(-c3nc4ccccc4s3)n2CCN1C(=O)c1ccc(-c2cccs2)cc1 [Example 5, (R)-(3-(Benzo[d]thiazol-2-yl)-8-methyl-5,6-dihydro-[1,2,4]triazolo[4,3-a]pyrazin-7 (8H)-yl)(4-(thien-2-yl)phenyl)methanone] | 159 | 
C[C@@H]1c2nnc(-c3cc4ccccn4n3)n2CCN1C(=O)c1ccc(Cl)c(Cl)c1 [Example 46, (R)-(3,4-Dichlorophenyl)(8-methyl-3-(pyrazolo[1,5-a]pyridin-2-yl)-5,6-dihydro-[1,2,4]triazolo[4,3-a]pyrazin-7(8H)-yl)methanone] | 107 | 
C[C@@H]1c2nnc(-c3nc4ccccc4s3)n2CCN1C(=O)c1ccc(F)cc1 [Example 1, (R)-(3-(Benzo[d]thiazol-2-yl)-8-methyl-5,6-dihydro-[1,2,4]triazolo[4,3-a]pyrazin-7 (8H)-yl)(4-fluorophenyl)methanone] | 76.2 | 
C[C@@H]1c2nnc(-c3nc(N(C)C4CC4)ns3)n2CCN1C(=O)c1ccc(F)cc1 [Example 115, (R)-(3-(3-(Cyclopropyl(methyl)amino)-1,2,4-thiadiazol-5-yl)-8-methyl-5,6-dihydro-[1,2,4]triazolo[4,3-a]pyrazin-7(8H)-yl)(4-fluorophenyl)methanone] |  | 76.6
C[C@@H]1c2nnc(-c3nc4c(F)cc(F)cc4s3)n2CCN1C(=O)c1ccc(Cl)cc1 [Example 16, (R)-(4-Chlorophenyl)(3-(4,6-difluorobenzo[d]thiazol-2-yl)-8-methyl-5,6-dihydro-[1,2,4]triazolo[4,3-a]pyrazin-7(8H)-yl)methanone] |  | 146
C[C@@H]1c2nnc(-c3nc4cc(F)cc(F)c4s3)n2CCN1C(=O)c1ccc(F)cc1 [Example 18, (R)-(3-(5,7-Difluorobenzo[d]thiazol-2-yl)-8-methyl-5,6-dihydro-[1,2,4]triazolo[4,3-a]pyrazin-7(8H)-yl)(4-fluorophenyl)methanone] | 130 | 
[2H]C([2H])([2H])N(c1nsc(-c2nnc3n2CCN(C(=O)c2ccc(F)cc2)[C@@H]3C)n1)C([2H])([2H])[2H] [Example 106, (R)-(3-(3-(Bis(methyl-d3)amino)-1,2,4-thiadiazol-5-yl)-8-methyl-5,6-dihydro-[1,2,4]triazolo[4,3-a]pyrazin-7(8H)-yl)(4-fluorophenyl)methanone] |  | 129
C[C@@H]1c2nnc(-c3nc4ccsc4s3)n2CCN1C(=O)c1ccc(Cl)c(Cl)c1 [Example 44, (R)-(3,4-Dichlorophenyl)(8-methyl-3-(thieno[3,2-d]thiazol-2-yl)-5,6-dihydro-[1,2,4]triazolo[4,3-a]pyrazin-7(8H)-yl)methanone] | 255 | 
[2H]c1c([2H])c(C(=O)N2CCn3c(-c4nc(C([2H])([2H])[2H])ns4)nnc3[C@H]2C)c([2H])c([2H])c1F [Example 50, (R)-(4-Fluorophenyl-2,3,5,6-d4)(8-methyl-3-(3-(methyl-d3)-1,2,4-thiadiazol-5-yl)-5,6-dihydro-[1,2,4]triazolo[4,3-a]pyrazin-7(8H)-yl)methanone] | 147 | 
C[C@@H]1c2nnc(-c3nc4sccc4s3)n2CCN1C(=O)c1ccc(F)cc1 [Example 40, (R)-(4-Fluorophenyl)(8-methyl-3-(thieno[2,3-d]thiazol-2-yl)-5,6-dihydro-[1,2,4]triazolo[4,3-a]pyrazin-7(8H)-yl)methanone] | 298 | 
